From US20130102631A1, “NOVEL MICROBIOCIDAL DIOXIME ETHER DERIVATIVES” (SYNGENTA CROP PROTECTION LLC, priority 2010, published 2013)

How the values were obtained:
[1] = tested on: Glomerella lagenarium; assay: Glomerella lagenarium (Colletotrichum lagenarium) / liquid culture (anthracnose); format: cell-based; conditions: Colletotrichum orbiculare; at ≦200 ppm, liquid culture PDB, inhibition of growth photometrically 3-4 days after application; read-out: control of Glomerella lagenarium
Experimental: Glomerella lagenarium (Colletotfichum lagenarium)/Liquid Culture (Anthracnose): Conidia of the fungus from cryogenic storage were directly mixed into nutrient broth (PDB potato dextrose broth). After placing a DMSO solution of test compound into a 96-well microtiter, the nutrient broth containing the fungal spores was added. The test plates were incubated at 24° C. and the inhibition of growth is measured photometrically 3-4 days after application. […]-2.509; 5.561; 2.561; E/E-2.208; P.57; 2.513; 2.559; 2.556; 2.555; 2.374; 2.552; 2.548; 2.544; 2.541; 2.540; 2.539; 2.537; 2.536; 2.533; 2.531; 2.530; 2.528; 2.526; 2.519; 2.510; 2.516; 2.514; E/E-5.167; E/E-3.002; 2.512; 2.514; Z/E-2.474

[2] = tested on: Gaeumannomyces graminis; assay: Gaeumannomyces graminis / liquid culture (take-all of cereals); format: cell-based; conditions: at ≦200 ppm, liquid culture PDB, inhibition of growth photometrically 4-5 days after application, read-out: control of Gaeumannomyces graminis
Experimental: Gaeumannomyces graminis/Liquid Culture (Take-All of Cereals): Mycelial fragments of the fungus from cryogenic storage were directly mixed into nutrient broth (PDB potato dextrose broth). After placing a DMSO solution of test compound into a 96-well microtiter plate, the nutrient broth containing the fungal spores is added. The test plates were incubated at 24° C. and the inhibition of growth was determined photometrically 4-5 days after application. […]-2.509; 5.561; 2.561; P.57; 2.513; 2.559; 2.558; 2.557; 2.556; 2.555; 2.374; 2.553; 2.552; 2.551 (fraction B); 2.551 (fraction A); 2.539; 2.533; 2.528; 2.526; 2.525 (fraction B); 2.525 (fraction A); 2.524; 2.523; 2.521; 2.520; 2.519; 2.510; 2.518; 2.516; 2.514; E/E-5.167; E/E-3.002; 2.512; E/E-2.508

[3] = tested on: Thanatephorus cucumeris (Rhizoctonia solani); assay: Thanatephorus cucumeris (Rhizoctonia solani) / liquid culture (foot rot, damping-off); format: cell-based; conditions: at ≦200 ppm, liquid culture PDB, inhibition of growth photometrically 3-4 days after application, read-out: control of Thanatephorus cucumeris
Experimental: Thanatephorus cucumeris (Rhizoctonia solani)/Liquid Culture (Foot Rot, Damping-Off Mycelia fragments of a newly grown liquid culture of the fungus are directly mixed into nutrient broth (PDB potato dextrose broth). After placing a DMSO solution of the test compounds into a 96-well microtiter, the nutrient broth containing the fungal material was added. The test plates were incubated at 24° C. and the inhibition of growth was determined photometrically 3-4 days after application. […]-2.508 5.561; 2.561; P.57; 2.513; 2.559; 2.558; 2.553; 2.533; 2.530; 2.526; 2.519; 2.517; 2.516; 2.514; 2.512; 2.514

[4] = tested on: Monographella nivalis (Microdochium nivale); assay: Monographella nivalis (Microdochium nivale) / liquid culture (foot rot cereals); format: cell-based; conditions: at ≦200 ppm, liquid culture PDB, inhibition of growth photometrically 4-5 days after application, read-out: control of Monographella nivalis
Experimental: Monographella nivalis (Microdochium nivale)/Liquid Culture (Foot Rot Cereals): Conidia of the fungus from cryogenic storage were directly mixed into nutrient broth (PDB potato dextrose broth). After placing a DMSO solution of test compound into a 96-well microtiter plate, the nutrient broth containing the fungal spores was added. The test plates were incubated at 24° C. and the inhibition of growth was determined photometrically 4-5 days after application. […].57; 2.513; 2.559; 2.558; 2.556; 2.555; 2.374; 2.553; 2.551 (fraction B); 2.551 (fraction A); 2.548; 2.544; 2.542; 2.541; 2.539; 2.536; 2.535; 2.533; 2.530; 2.528; 2.526; 2.525 (fraction B); 2.525 (fraction A); 2.524; 2.519; 2.518; 2.516; 2.514; E/E-5.167; 2.512; 2.514

[5] = tested on: Mycosphaerella arachidis (Cercospora arachidicola); assay: Mycosphaerella arachidis (Cercospora arachidicola) / liquid culture (early leaf spot); format: cell-based; conditions: at ≦200 ppm, liquid culture PDB, inhibition of growth photometrically 4-5 days after application, read-out: control of Mycosphaerella arachidis
Experimental: Mycosphaerella arachidis (Cercospora arachidicola)/Liquid Culture (Early Leaf Spot): Conidia of the fungus from cryogenic storage were directly mixed into nutrient broth (PDB potato dextrose broth). After placing a DMSO solution of test compound into a 96-well microtiter plate, the nutrient broth containing the fungal spores was added. The test plates are incubated at 24° C. and the inhibition of growth was determined photometrically 4-5 days after application. […]-2.509; 5.561; 2.561; P.57; 2.513; 2.559; 2.558; 2.557; 2.556; 2.555; 2.374; 2.553; 2.552; 2.551 (fraction B); 2.551 (fraction A); 2.544; 2.541; 2.539; 2.537; 2.536; 2.533; 2.532; 2.531; 2.530; 2.528; 2.526; 2.525 (fraction B); 2.525 (fraction A); 2.524; 2.520; 2.519; 2.510; 2.518; 2.517; 2.516; 2.514; […].002; 2.512; 2.511; 2.514

[6] = tested on: Mycosphaerella graminicola (Septoria tritici); assay: Mycosphaerella graminicola (Septoria tritici) / liquid culture (Septoria blotch); format: cell-based; conditions: Zymoseptoria tritici; at ≦200 ppm, liquid culture PDB, inhibition of growth photometrically 4-5 days after application; read-out: control of Mycosphaerella graminicola
[7] = tested on: Phaeosphaeria nodorum (Septoria nodorum); assay: Phaeosphaeria nodorum (Septoria nodorum) / wheat / leaf disc preventative (glume blotch); format: in vivo; conditions: Parastagonospora nodorum, foliar, wheat leaf segments cv Kanzler, inoculated 2 days after application, assessed 5-7 days after application
Experimental: Phaeosphaeria nodorum (Septoria nodorum)/Wheat/Leaf Disc Preventative (Glume Blotch): Wheat leaf segments cv Kanzler were placed on agar in a 24-well plate and sprayed with formulated test compound diluted in water at an application rate of 200 ppm. The leaf disks are inoculated with a spore suspension of the fungus 2 days after application. The inoculated test leaf disks are incubated at 20° C. and 75% relative humidity under a light regime of 12/12 h (light/dark) in a climate cabinet and the activity of a compound is assessed as percent disease control compared to untreated when an appropriate level of disease damage appears in untreated check leaf disks (5-7 days after application). […]-2.508; 5.561; 2.561; E/E-2.208; P.57; 2.513; 2.559; 2.558; 2.557; 2.556; 2.555; 2.374; 2.544; 2.541; 2.539; 2.537; 2.536; 2.535; 2.533; 2.530; 2.526; 2.519; 2.510; 2.516; 2.514; E/E-5.167; E/E-3.002; 2.512

[8] = tested on: Blumeria graminis f. sp. tritici (Erysiphe graminis f. sp. tritici); assay: Blumeria graminis f. sp. tritici / wheat / leaf disc preventative (powdery mildew on wheat); format: in vivo; conditions: foliar, wheat leaf segments cv. Kanzler, inoculated 1 day after application, assessed 6-8 days after application
Experimental: Blumeria graminis f. sp. tritici (Erysiphe graminis f. sp. tritici)/Wheat/Leaf Disc Preventative (Powdery Mildew on Wheat):
Wheat leaf segments cv. Kanzler were placed on agar in a 24-well plate and sprayed with the formulated test compound diluted in water at an application rate of 200 ppm. The leaf disks were inoculated by shaking powdery mildew infected plants above the test plates 1 day after application. The inoculated leaf disks were incubated at 20° C. and 60% relative humidity under a light regime of 24 h darkness followed by 12 h/12 h (dark/light) in a climate chamber and the activity of a compound was assessed as percent disease control compared to untreated when an appropriate level of disease damage appears on untreated check leaf segments (6-8 days after application). The following compounds gave at least 80% control of Blumeria graminis: E/E-2.168, E/E-2.474, E/E-2.002; 5.561; 2.561; E/E-2.208; 2.513; 2.559; 2.557; 2.556; 2.555; 2.374; 2.552; 2.537; 2.533; 2.530; 2.528; 2.526; 2.519; 2.510; 2.516; 2.514; E/E-5.167; E/E-3.002; 2.512; 2.511

[9] = tested on: Pyrenophora teres; assay: Pyrenophora teres / barley / leaf disc preventative (net blotch); format: in vivo; conditions: foliar, barley leaf segments cv Hasso, inoculated two days after application, assessed 5-7 days after application
Experimental: Pyrenophora teres/Barley/Leaf Disc Preventative (Net Blotch): Barley leaf segments cv Hasso are placed on agar in a 24-well plate and sprayed with formulated test compound diluted in water at an application rate of 200 ppm. The leaf segments are inoculated with a spore suspension of the fungus two days after application of the test solution. The inoculated leaf segments are incubated at 20° C. and 65% relative humidity under a light regime of 12/12 h (light/dark) in a climate cabinet and the activity of a compound is assessed as disease control compared to untreated when an appropriate level of disease damage appears in untreated check leaf segments (5-7 days after application). […]-2.507; 5.561; 2.561; E/E-2.208; P.57; 2.513; 2.559; 2.558; 2.556; 2.555; 2.374; 2.552; 2.544; 2.537; 2.533; 2.530; 2.528; 2.519; 2.510; 2.516; 2.514; E/E-5.167; E/E-3.002; 2.512

CCOC(=O)c1ccc(C)c(/C(C)=N/OCC(C)(C)CO/N=C2\CCCc3ccc(C)nc32)n1 [Compound 2.526]
≥ 80%: inhibition of growth at up to 200 µg/mL [1] | inhibition of growth at up to 200 µg/mL [2] | inhibition of growth at up to 200 µg/mL [3] | inhibition of growth at up to 200 µg/mL [4] | inhibition of growth at up to 200 µg/mL [5] | inhibition of growth at up to 200 µg/mL [6] | pest or weed control at 200 ppm [7] | pest or weed control at 200 ppm [8]

Cc1ccc2c(n1)/C(=N/OCC(C)(C)CO/N=C/c1ccc(OCc3ccccc3)cn1)CCC2 [Compound 2.553]
≥ 80%: inhibition of growth at up to 200 µg/mL [2] | inhibition of growth at up to 200 µg/mL [3] | inhibition of growth at up to 200 µg/mL [4] | inhibition of growth at up to 200 µg/mL [5] | inhibition of growth at up to 200 µg/mL [6]

C/C(=N\OCC(C)(C)CO/N=C1\CCCc2ccc(C#CCO)nc21)c1cc(C)cc(C)n1 [Compound 2.558]
≥ 80%: inhibition of growth at up to 200 µg/mL [2] | inhibition of growth at up to 200 µg/mL [3] | inhibition of growth at up to 200 µg/mL [4] | inhibition of growth at up to 200 µg/mL [5] | inhibition of growth at up to 200 µg/mL [6] | pest or weed control at 200 ppm [7] | pest or weed control at 200 ppm [9]
